{"source": "patent US20140023611A1", "about": "(priority 2010, published 2014)", "key": {"[1]": {"biological_target": "T1, rat NaP2b (SLC34A2) (Rattus norvegicus, UniProt Q9JJ09)", "T1 construct": "host or cells: HEK293", "T1 sequence (Q9JJ09 1-695)": "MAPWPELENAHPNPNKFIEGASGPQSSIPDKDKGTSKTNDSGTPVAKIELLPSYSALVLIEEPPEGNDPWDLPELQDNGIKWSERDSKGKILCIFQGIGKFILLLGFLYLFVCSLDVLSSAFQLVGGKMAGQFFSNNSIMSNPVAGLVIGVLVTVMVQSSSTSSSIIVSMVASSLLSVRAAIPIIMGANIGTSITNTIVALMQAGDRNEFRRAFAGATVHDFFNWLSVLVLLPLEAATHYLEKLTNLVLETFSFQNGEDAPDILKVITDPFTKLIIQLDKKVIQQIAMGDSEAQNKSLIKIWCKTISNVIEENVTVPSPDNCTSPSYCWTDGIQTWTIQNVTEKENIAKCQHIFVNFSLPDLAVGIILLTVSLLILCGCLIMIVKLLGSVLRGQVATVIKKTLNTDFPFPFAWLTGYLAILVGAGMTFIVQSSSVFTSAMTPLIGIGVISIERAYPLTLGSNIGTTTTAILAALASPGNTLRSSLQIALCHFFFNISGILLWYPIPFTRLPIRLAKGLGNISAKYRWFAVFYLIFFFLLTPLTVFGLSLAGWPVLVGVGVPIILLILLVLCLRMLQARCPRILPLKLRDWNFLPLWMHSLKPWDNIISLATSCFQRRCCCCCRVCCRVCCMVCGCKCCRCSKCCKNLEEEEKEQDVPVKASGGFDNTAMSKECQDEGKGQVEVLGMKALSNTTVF", "experiment": "NaP2b-mediated Pi transport (33P uptake) in transfected HEK293 cells, rat NaP2b", "type": "cell-based", "details": "Structure (V) examples, Table 2; rat NaP2b, HEK293; read-out: pIC50 Range (converted)", "summary_of_the_method": "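HEK293 cells transiently transfected with NaP2b cDNA, endogenous PiT transport suppressed; ^33P-phosphate uptake measured in sodium vs choline buffer (100 uM KH2PO4, pH 7.4) for 3–30 min at room temperature. Twelve concentrations, 0.1 nM–30 uM, in duplicate; uptake by scintillation counting, pIC50 calculated.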"}, "[2]": {"test_system": "5/6 nephrectomy (5/6Nx) rat model of CKD", "experiment": "In vivo evaluation procedure: CKD rats, drug in chow", "details": "for FGF23 (serum FGF23 levels): ELISA", "quoted_text": "To assess the ability of selected example compounds to impact the progression of chronic kidney disease (CKD), 5/6 nephrectomy (5/6Nx) rat model of CKD was used. […] Upon arrival, the surgeries and extent of kidney damage in the animals were assessed by measuring serum creatinine, P, Ca, and BUN. Based on this analysis, rats with inconsistent kidney function were removed from the study and the remainder of the cohort was divided in to evenly stratified test groups. The remaining animals were then placed on the same synthetic diet used in the drug-in-chow studies (Example 350), except the P levels were adjusted to 0.9% P. Drugs are blended into this chow to achieve the required dosing rate. At this time, rats were also started on an activated Vitamin D regimen in which they were injected intraperitoneally with calcitriol at 80 ng/kg three times a week. Once a week, serum was collected via retro orbital bleeding for analysis of serum P and creatinine utilizing an ACE ALERA blood chemistry analyzer. […] Unless otherwise indicated, the data shown is from the serum collected at 2 weeks after initiation of the treatment regimen. In addition, for study #3, during the third week of the study, the animals were placed in metabolic cages for two days, and urine collected for the final 24 hours."}, "[3]": {"test_system": "Uptake of Phosphorus from the Intestine", "experiment": "In vivo bolus phosphorus challenge", "set-up": "species or system rat", "details": "Sprague-Dawley rats on low-phosphorus diet; oral Drug Dose 30, 15 min before phosphate bolus; serum 30 min post bolus", "method": "By pretreating animals with a low phosphorus diet followed by the subsequent dosing of a phosphorus bolus, serum phosphorus levels were monitored after 30 minutes as a surrogate for intestinal phosphorus absorption. […] The in vivo bolus phosphorus challenge model used here mimics this model in rats.\nMale, 7-week-old Sprague-Dawley rats (Charles-River laboratories international, Hollister, Calif.) were allowed to acclimatize for a minimum of 3 days before switching to a synthetic low-phosphorus diet (TD.85010, Harlan Teklad, Madison, Wis.) which contains 0.1% phosphorus and 0.6% calcium. At day 5, testing compounds or vehicle alone (as indicated) were orally administered at the indicated dose in a volume of 5 ml/kg, followed by a bolus gavage of monobasic sodium phosphate (1 mmol in 1 ml) 15 min after compound dosing. Serum was collected via retroorbital bleeding 30 min post phosphate bolus and phosphate levels were determined utilizing an ACE ALERA blood chemistry analyzer (Alfa Wassermann Diagnostic Technologies, West Caldwell, N.J.).\nThe extent of inhibition by test compounds on the elevation of serum phosphate levels in response to the bolus of phosphorus is shown in Table 12 (data are expressed as % Inhibition, with 6-10 animals per data point). The differences between groups were evaluated by one-way analysis of variance with Dunnett's post hoc tests."}, "[4]": {"details": "Study 3, 5/6Nx rats, data at 3 weeks"}}, "note": "Marks after values point to notes of the source that are not given here."}
{"smiles": "O=C(NCCN1CCOCC1)c1cccc(C(=O)Nc2ccc(N3CCCCC3)cc2C(=O)N/N=C/c2ccc(Cl)c(C(F)(F)F)c2)c1", "note": "[Ex. 53, (E)-N^1-(2-(2-(4-chloro-3-(trifluoromethyl)benzylidene)hydrazinecarbonyl)-4-(piperidin-1-yl)phenyl)-N3-(2-morpholinoethyl)isophthalamide]", "values": [{"measurement": "IC50", "setting": "[1]", "result": "100 to 794", "unit": "nM"}]}
{"smiles": "CCN(CC)c1ccc(NC(=O)c2cccc(CSCCOCCOCCOCCOCCOCCOCCOCCOCCC(=O)O)c2)c(-c2cc(C(=O)NCc3cccc(C(F)(F)F)c3)ccn2)c1", "note": "[Example 166, 1-(3-(4-(diethylamino)-2-(4-(3-(trifluoromethyl)benzylcarbamoyl)pyridin-2-yl)phenylcarbamoyl)phenyl)-5,8,11,14,17,20,23,26-octaoxa-2-thianonacosan-29-oic acid]", "values": [{"measurement": "Ser P (serum P)", "setting": "[2]; Study 2, 5/6Nx rats, 0.9% P diet + calcitriol, 2 weeks", "result": 11, "unit": "mg/dL"}, {"measurement": "Ser CRE (serum creatinine)", "setting": "[2]; Study 2, 5/6Nx rats, 2 weeks", "result": 1.2, "unit": "mg/dL"}, {"measurement": "FGF23 (serum FGF23 levels)", "setting": "[2]; Study 2, 5/6Nx rats, 2 weeks", "result": 100000, "unit": "pg/mL"}, {"measurement": "Ser CRE (serum creatinine)", "setting": "[2]; [4]", "result": "1.0^§ mg/dL"}, {"measurement": "Ser P (serum P)", "setting": "[2]; [4]", "result": "10^§ mg/dL"}, {"measurement": "FGF23 (serum FGF23 levels)", "setting": "[2]; Study 3, 5/6Nx rats, data at 4 weeks", "result": "1.2 × 10^5§§ pg/mL"}]}
{"smiles": "CN(CCN1CCOCC1)C(=O)c1cccc(C(=O)Nc2ccc(N3CCCCC3)cc2-c2cc(C(=O)NCc3cccc(C(F)(F)F)c3)ccn2)c1", "note": "[Example 80, N1-Methyl-N1-(2-morpholinoethyl)-N3-(4-(piperidin-1-yl)-2-(4-((3-(trifluoromethyl)benzyl)carbamoyl)pyridin-2-yl)phenyl)isophthalamide]", "values": [{"measurement": "% Inhibition of Serum P elevation", "setting": "[3]", "result": "20-30%"}]}
{"smiles": "COCCNC(=O)CCSCc1cccc(C(=O)Nc2ccc(N3CCCCC3)cc2C(=O)N/N=C/c2ccc(Cl)c(C(F)(F)F)c2)c1", "note": "[Ex. 49, (E)-N-(2-(2-(4-chloro-3-(trifluoromethyl)benzylidene)hydrazinecarbonyl)-4-(piperidin-1-yl)phenyl)-3-((3-(2-methoxyethylamino)-3-oxopropylthio)methyl)benzamide]", "values": [{"measurement": "IC50", "setting": "[1]", "result": "100 to 794", "unit": "nM"}]}
{"smiles": "CCN(CC)c1ccc(NC(=O)c2cccc(CCCOCCOCCOCCOCCOCCOCCOCCOCCOC)c2)c(-c2cc(C(=O)N[C@H]3CCCc4ccccc43)ccn2)c1", "note": "[Example 261, (S)-2-(2-(3-(2,5,8,11,14,17,20,23,26-nonaoxanonacosan-29-yl)benzamido)-5-(diethylamino)phenyl)-N-(1,2,3,4-tetrahydronaphthalen-1-yl)isonicotinamide]", "values": [{"measurement": "Ser P (serum P)", "setting": "[2]; Study 1, 5/6Nx rats, 0.9% P diet + calcitriol, 2 weeks", "result": 9.7, "unit": "mg/dL"}, {"measurement": "Ser CRE (serum creatinine)", "setting": "[2]; Study 1, 5/6Nx rats, 2 weeks", "result": 1.0, "unit": "mg/dL"}, {"measurement": "FGF23 (serum FGF23 levels)", "setting": "[2]; Study 1, 5/6Nx rats, 2 weeks", "result": ">15,000 pg/mL"}]}
